Measurements taken from PubChem BioAssay (NCI).
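Each compound was tested at five concentrations against cells in 96-well plates for 48 hours. GI50 is the concentration that inhibits growth by half. TGI: concentration producing complete growth inhibition.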

Key:
Test in all cases: NCI tumour cell line growth inhibition, 48 h
[1] = system: UACC-62 melanoma
[2] = system: MCF7 breast
[3] = system: SR leukemia
[4] = system: HCC-2998 colon
[5] = system: CCRF-CEM leukemia
[6] = system: RXF 393 renal
[7] = system: HOP-62 NSCLC
[8] = system: SW-620 colon
[9] = system: T-47D breast
[10] = system: CAKI-1 renal
[11] = system: SF-539 CNS
[12] = system: HCT-116 colon
[13] = system: SNB-19 CNS
[14] = system: LOX IMVI melanoma
[15] = system: NCI-H522 lung
[16] = system: SK-OV-3 ovarian
[17] = system: NCI/ADR-RES ovarian
[18] = system: HT29 colon
[19] = system: RPMI-8226 leukemia
[20] = system: MDA-MB-435
[21] = system: K-562 leukemia
[22] = system: SNB-75 CNS
[23] = system: HCT-15 colon
[24] = system: NCI-H23 lung
[25] = system: ACHN renal
[26] = system: DU-145 prostate
[27] = system: TK-10 renal
[28] = system: U251 CNS
[29] = system: OVCAR-5 ovarian
[30] = system: SK-MEL-5 melanoma
[31] = system: SF-268 CNS
[32] = system: KM12 colon
[33] = system: M14 melanoma
[34] = system: OVCAR-3 ovarian
[35] = system: EKVX NSCLC
[36] = system: IGROV1 ovarian
[37] = system: HS 578T breast
[38] = system: PC-3 prostate
[39] = system: UACC-257 melanoma
[40] = system: HL-60(TB) leukemia
[41] = system: MOLT-4 leukemia
[42] = system: OVCAR-4 ovarian
[43] = system: SN12C renal
[44] = system: A549 NSCLC
[45] = system: SK-MEL-28 melanoma
[46] = system: SK-MEL-2 melanoma
[47] = system: OVCAR-8 ovarian
[48] = system: MDA-MB-231 breast
[49] = system: UO-31 renal
[50] = system: BT-549 breast
[51] = system: COLO 205 colon
[52] = system: NCI-H460 lung
[53] = system: HOP-92 NSCLC
[54] = system: SF-295 CNS
[55] = system: MALME-3M melanoma
[56] = system: NCI-H226 lung
[57] = system: 786-0 renal
[58] = system: A498 renal

Compound: N#CSCC(=O)c1ccc(Cl)cc1
- GI50 [1]: 6.4 µM
- TGI [1]: 21.5 µM
- GI50 [2]: 2.53 µM
- TGI [2]: 13.6 µM
- GI50 [3]: 0.19 µM
- TGI [3]: > 24.6 µM
- GI50 [4]: 12.1 µM
- TGI [4]: 27.8 µM
- GI50 [5]: 1.5 µM
- TGI [5]: 20.6 µM
- GI50 [6]: 2.05 µM
- TGI [6]: 5.18 µM
- GI50 [7]: 5.19 µM
- TGI [7]: 28.8 µM
- GI50 [8]: 2.13 µM
- TGI [8]: 12.2 µM
- GI50 [9]: 7.84 µM
- TGI [9]: 67.9 µM
- GI50 [10]: 0.0182 µM
- TGI [10]: 1.16 µM
- GI50 [11]: 2.85 µM
- TGI [11]: 14.9 µM
- GI50 [12]: 3.09 µM
- TGI [12]: 12.7 µM
- GI50 [13]: 14.1 µM
- TGI [13]: > 73 µM
- GI50 [14]: 3.07 µM
- TGI [14]: 13.3 µM
- GI50 [15]: 2.69 µM
- TGI [15]: 9.51 µM
- GI50 [16]: 4.35 µM
- TGI [16]: 30.8 µM
- GI50 [17]: 3.11 µM
- TGI [17]: 11 µM
- GI50 [18]: 3.59 µM
- TGI [18]: 19.7 µM
- GI50 [19]: 1.44 µM
- TGI [19]: 4.65 µM
- GI50 [20]: 2.28 µM
- TGI [20]: 6.37 µM
- GI50 [21]: 0.974 µM
- TGI [21]: > 40.3 µM
- GI50 [22]: 2.75 µM
- TGI [22]: 22.2 µM
- GI50 [23]: 2.85 µM
- TGI [23]: 32.2 µM
- GI50 [24]: 4.27 µM
- TGI [24]: 32.3 µM
- GI50 [25]: 5.55 µM
- TGI [25]: 19.9 µM
- GI50 [26]: 2.54 µM
- TGI [26]: 6.15 µM
- GI50 [27]: 3.21 µM
- TGI [27]: 13.6 µM
- GI50 [28]: 3.23 µM
- TGI [28]: 16.6 µM
- GI50 [29]: 5.39 µM
- TGI [29]: 27.9 µM
- GI50 [30]: 2.31 µM
- TGI [30]: 14.7 µM
- GI50 [31]: 2.58 µM
- TGI [31]: 8.31 µM
- GI50 [32]: 2.59 µM
- TGI [32]: 7.33 µM
- GI50 [33]: 3.4 µM
- TGI [33]: 15.1 µM
- GI50 [34]: 2.33 µM
- TGI [34]: 5.26 µM
- GI50 [35]: 4.99 µM
- TGI [35]: 26.5 µM
- GI50 [36]: 1.33 µM
- TGI [36]: 6.6 µM
- GI50 [37]: 2.9 µM
- TGI [37]: 16.3 µM
- GI50 [38]: 3.95 µM
- TGI [38]: 57.5 µM
- GI50 [39]: 5.64 µM
- TGI [39]: > 28.6 µM
- TGI [40]: > 22.3 µM
- GI50 [41]: 1.03 µM
- TGI [41]: > 33.1 µM
- GI50 [42]: 12.4 µM
- TGI [42]: > 100 µM
- GI50 [43]: 3.69 µM
- TGI [43]: 19 µM
- GI50 [44]: 9.14 µM
- TGI [44]: > 49.7 µM
- GI50 [45]: 6.17 µM
- TGI [45]: 19.8 µM
- GI50 [46]: 5.45 µM
- TGI [46]: 25.7 µM
- GI50 [47]: 4.78 µM
- TGI [47]: 22.4 µM
- GI50 [48]: 3.57 µM
- TGI [48]: 12.4 µM
- GI50 [49]: 3.23 µM
- TGI [49]: 13.5 µM
- GI50 [50]: 2.69 µM
- TGI [50]: 11.4 µM
- GI50 [51]: 2.65 µM
- TGI [51]: 7.94 µM
- GI50 [52]: 3.16 µM
- TGI [52]: 18.7 µM
- GI50 [53]: 6.02 µM
- TGI [53]: 29 µM
- GI50 [54]: 2.89 µM
- TGI [54]: 13.5 µM
- GI50 [55]: 5.76 µM
- TGI [55]: 42.9 µM
- GI50 [56]: 10.8 µM
- TGI [56]: 33.3 µM
- GI50 [57]: 4.96 µM
- TGI [57]: 21.3 µM
- GI50 [58]: 5.59 µM
- TGI [58]: 20.9 µM
